Data reported in US10138255B2, “Piperazine derivatives as HIV protease inhibitors” (Merck Sharp & Dohme Corp., priority 2014, dated 2018).

system: HIV-1 (H9IIIB strain); assay: Cell-Based HIV Infection Assay Using a Reporter (MT4-GFP cells); settings: Human immunodeficiency virus 1, inflection point (IP) of viral growth inhibition; MT4-GFP cells infected with HIV-1 H9IIIB; 50% normal human serum; mean of at least two independent experiments; read-out: Cell Based IP (50% NHS)
Procedure: Cell-Based HIV Infection Assay Using a Reporter (“Cell-Based”):
MT4-GFP cells contain a stably integrated HIV long terminal repeat promoter directing the transcription of green fluorescent protein (GFP). When HIV infects the cell, GFP is produced and the cell becomes green. MT4-GFP cells (250,000 cells/mL) were bulk-infected with HIV-1 (H9IIIB strain) at low multiplicity of infection (MOI) in RPM 1640 media, supplemented with 10% FBS for 24 h. Cells were then washed once in RPMI 1640 plus 10% FBS and resuspended in RPMI plus 50% normal human serum (NHS). Test compounds were serial-diluted in DMSO using an ECHO liquid dispenser. A control well included a combination of three HIV drugs (an inhibitor of HIV protease, integrase strand transfer and a non-nucleoside reverse transcriptase inhibitor; triple drug). The infected MT4-GFP cells were added to a 384-well poly-D-lysine coated black plate with clear bottom in which the diluted test compounds were placed. The cells were seeded in the plate at 8,000 cells per well and the final DMSO concentration was 0.4%. Infected cells were quantified at both 24 and 48 h post incubation using an Acumen eX3 plate reader. Viral reproductive ratio (R0) was determined using the number of infected cells at 48 h divided by the number of infected cells at 24 h. Percent viral growth inhibition was calculated by [1−(R−Rtripledrug)/(RDMSO−Rtripledrug)]*100. Compound potency inflection point (IP) was determined with use of a 4-parameter dose response curve analysis.
Data shown in the table reflects the mean of at least two independent experiments.

In order of rising EC50:
1. COC(=O)N[C@H](C(=O)Nc1cccc(F)c1CC[C@H]1CN[C@@H]2CCCS(=O)(=O)N1C2)[C@@H](c1ccc(Cl)c(F)c1)C1C[C@@H](C)O[C@@H](C)C1 (stereo partly drawn) [Example 16, Methyl {(1S,2R)-2-(4-chloro-3-fluorophenyl)-2-[(2R,6S)-2,6-dimethyltetrahydro-2H-pyran-4-yl]-1-[(2-{2-[(6R,9S)-2,2-dioxido-2-thia-1,7-diazabicyclo[4.3.1]dec-9-yl]ethyl}-3-fluorophenyl)carbamoyl]ethyl}carbamate]  4.9 nM
2. COC(=O)N[C@H](C(=O)Nc1cccc(F)c1CCC1CNC2CCCS(=O)(=O)N1C2)[C@@H](c1ccc(Cl)cc1)c1ccc(C(F)(F)F)nc1 (stereo partly drawn) [Example 21, Methyl {(1S,2S)-2-(4-chlorophenyl)-1-({2-[2-(2,2-dioxido-2-thia-1,7-diazabicyclo[4.3.1]dec-9-yl)ethyl]-3-fluorophenyl}carbamoyl)-2-[6-(trifluoromethyl)pyridin-3-yl]ethyl}carbamate]  5 nM
3. COC(=O)N[C@H](C(=O)Nc1cccc(F)c1CCC1CNC2CCCS(=O)(=O)N1C2)[C@H](c1cncc(C(F)(F)F)c1)c1ccc(Cl)c(F)c1 (stereo partly drawn) [Example 19, Methyl {(1S,2S)-2-(4-chloro-3-fluorophenyl)-1-({2-[2-(2,2-dioxido-2-thia-1,7-diazabicyclo[4.3.1]dec-9-yl)ethyl]-3-fluorophenyl}carbamoyl)-2-[5-(trifluoromethyl)pyridin-3-yl]ethyl}carbamate]  5.2 nM
4. C[C@@H]1C[C@H]([C@H](c2ccc(Cl)cc2)[C@H](N)C(=O)Nc2cncc(F)c2CC[C@H]2CN[C@@H]3CCCS(=O)(=O)N2C3)C[C@H](C)O1 [Example 31, (2S,3R)-2-Amino-3-(4-chlorophenyl)-3-((2R,4r,6S)-2,6-dimethyltetrahydro-2H-pyran-4-yl)-N-(4-(2-((6R,9S)-2,2-dioxido-2-thia-1,7-diazabicyclo[4.3.1]decan-9-yl)ethyl)-5-fluoropyridin-3-yl)propanamide]  6.3 nM
5. CO[C@H]1CC[C@H]([C@H](c2ccc(F)cc2)[C@H](N)C(=O)Nc2cncc(F)c2CC[C@H]2CN[C@@H]3CCCS(=O)(=O)N2C3)CC1 [Example 27, (2S,3R)-2-Amino-N-(4-(2-((6R,9S)-2,2-dioxido-2-thia-1,7-diazabicyclo[4.3.1]decan-9-yl)ethyl)-5-fluoropyridin-3-yl)-3-(4-fluorophenyl)-3-((1r,4R)-4-methoxycyclohexyl)propanamide]  7.5 nM
6. N[C@H](C(=O)Nc1cccc(F)c1CCC1CNC2CCCS(=O)(=O)N1C2)[C@@H](c1ccc(F)cc1)c1ccc(C(F)(F)F)cc1 (stereo partly drawn) [Example 33, (βR)—N-{2-[2-(2,2-Dioxido-2-thia-1,7-diazabicyclo[4.3.1]dec-9-yl)ethyl]-3-fluorophenyl}-β-(4-fluorophenyl)-4-(trifluoromethyl)-L-phenylalaninamide]  8.5 nM
7. COC(=O)N[C@H](C(=O)Nc1cccc(F)c1CCC1CNC2CCCS(=O)(=O)N1C2)[C@@H](c1ccc(Cl)cc1)c1ccnc(C(F)(F)F)c1 (stereo partly drawn) [Example 18, Methyl {(1S,2S)-2-(4-chlorophenyl)-1-({2-[2-(2,2-dioxido-2-thia-1,7-diazabicyclo[4.3.1]dec-9-yl)ethyl]-3-fluorophenyl}carbamoyl)-2-[2-(trifluoromethyl)pyridin-4-yl]ethyl}carbamate]  8.7 nM
8. CC(C)Oc1cc([C@H](c2ccc(Cl)cc2)[C@H](N)C(=O)Nc2cccc(F)c2CCC2CNC3CCCS(=O)(=O)N2C3)ccn1 (stereo partly drawn) [Example 17, (βS)-4-Chloro-N-{2-[2-(2,2-dioxido-2-thia-1,7-diazabicyclo[4.3.1]dec-9-yl)ethyl]-3-fluorophenyl}-β-[2-(1-methylethoxy)pyridin-4-yl]-L-phenylalaninamide]  8.9 nM
9. CC(C)Oc1ncc([C@H](c2ccc(F)cc2)[C@H](N)C(=O)Nc2cccc(F)c2CC[C@H]2CN[C@@H]3CCCS(=O)(=O)N2C3)cn1 [Example 23, (βS)—N-(2-{2-[(6R,9S)-2,2-Dioxido-2-thia-1,7-diazabicyclo[4.3.1]dec-9-yl]ethyl}-3-fluorophenyl)-4-fluoro-β-[2-(1-methylethoxy)pyrimidin-5-yf]-L-phenylalaninamide]  9.3 nM
10. COC(=O)N[C@H](C(=O)Nc1cc(F)ccc1CC[C@H]1CN[C@@H]2CCCS(=O)(=O)N1C2)[C@@H](c1ccc(F)cc1)C1C[C@@H](C)O[C@@H](C)C1 (stereo partly drawn) [Example 30, Methyl [(1S,2R)-2-[(2R,6S)-2,6-dimethyltetrahydro-2H-pyran-4-yl]-1-[(2-{2-[(6R,9S)-2,2-dioxido-2-thia-1,7-diazabicyclo[4.3.1]dec-9-yl]ethyl}-5-fluorophenyl)carbamoyl]-2-(4-fluorophenyl)ethyl]carbamate]  10 nM
11. CC(F)(F)c1cncc([C@H](c2ccc(Cl)cc2)[C@H](N)C(=O)Nc2cccc(F)c2CCC2CNC3CCCS(=O)(=O)N2C3)c1 (stereo partly drawn) [Example 20, (βS)-4-Chloro-β-[5-(1,1-difluoroethyl)pyridin-3-yl]-N-{2-[2-(2,2-dioxido-2-thia-1,7-diazabicyclo[4.3.1]dec-9-yl)ethyl]-3-fluorophenyl}-L-phenylalaninamide]  11 nM
12. COC(=O)N[C@H](C(=O)Nc1ccc(F)c(F)c1CC[C@H]1CN[C@@H]2CCCS(=O)(=O)N1C2)[C@@H](c1ccc(F)cc1)[C@H]1CC[C@H](OC)CC1 [Example 26, Methyl ((2S,3R)-1-((2-(2-((6R,9S)-2,2-dioxido-2-thia-1,7-diazabicyclo[4.3.1]decan-9-yl)ethyl)-3,4-difluorophenyl)amino)-3-(4-fluorophenyl)-3-((1r,4R)-4-methoxycyclohexyl)-1-oxopropan-2-yl)carbamate]  11 nM
13. N[C@H](C(=O)N[C@H]1CCCC[C@@H]1CC[C@H]1CN[C@@H]2CCCS(=O)(=O)N1C2)[C@@H](c1ccc(Cl)cc1)C1CCOCC1 [Example 24, (βR)-4-Chloro-N-[(1S,2R)-2-{2-[(6R,9S)-2,2-dioxido-2-thia-1,7-diazabicyclo[4.3.1]dec-9-yl]ethyl}cyclohexyl]-β-(tetrahydro-2H-pyran-4-yl)-L-phenylalaninamide]  13 nM
14. COC(=O)N[C@H](C(=O)Nc1ccc(F)c(F)c1CC[C@H]1CN[C@@H]2CCCS(=O)(=O)N1C2)[C@@H](c1ccc(F)cc1)C1CCOC(C)(C)C1 (stereo partly drawn) [Example 28, Methyl [(1S,2R)-2-(2,2-dimethyltetrahydro-2H-pyran-4-yl)-1-[(2-{2-[(6R,9S)-2,2-dioxido-2-thia-1,7-diazabicyclo[4.3.1]dec-9-yl]ethyl}-3,4-difluorophenyl)carbamoyl]-2-(4-fluorophenyl)ethyl]carbamate]  13 nM
15. COC(=O)N[C@H](C(=O)Nc1cccc(F)c1CC[C@H]1CN[C@@H]2CCCS(=O)(=O)N1C2)[C@@H](c1ccc(F)cc1)c1cnc(C(F)(F)F)nc1 [Example 22, Methyl [(1S)-2-[(2-{2-[(6R,9S)-2,2-dioxido-2-thia-1,7-diazabicyclo[4.3.1]dec-9-yl]ethyl}-3-fluorophenyl)amino]-1-{(S)-(4-fluorophenyl)[2-(trifluoromethyl)pyrimidin-5-yl]methyl}-2-oxoethyl]carbamate]  15 nM
16. COC(=O)N[C@H](C(=O)Nc1c(F)ccc(F)c1CC[C@H]1CN[C@@H]2CCCS(=O)(=O)N1C2)[C@@H](c1ccc(Cl)cc1)C1CCOCC1 [Example 32, Methyl [(1S,2R)-2-(4-chlorophenyl)-1-[(2-{2-[(6R,9S)-2,2-dioxido-2-thia-1,7-diazabicyclo[4.3.1]dec-9-yl]ethyl}-3,6-difluorophenyl)carbamoyl]-2-(tetrahydro-2H-pyran-4-yl)ethyl]carbamate]  20 nM
17. COC(=O)N[C@H](C(=O)N[C@H]1CCC[C@@H]1CC[C@H]1CN[C@@H]2CCCS(=O)(=O)N1C2)[C@@H](c1ccc(Cl)cc1)C1CCOC(C)(C)C1 (stereo partly drawn) [Example 29, Methyl [(1S,2R)-2-(4-chlorophenyl)-2-(2,2-dimethyltetrahydro-2H-pyran-4-yl)-1-{[(1S,2R)-2-{2-[(6R,9S)-2,2-dioxido-2-thia-1,7-diazabicyclo[4.3.1]dec-9-yl]ethyl}cyclopentyl]carbamoyl}ethyl]carbamate]  23 nM
18. COC(=O)N[C@H](C(=O)Nc1cccc(F)c1CCC1CNC2CCCS(=O)(=O)N1C2)[C@@H](c1ccc(F)cc1)c1ccc2c(c1)CCC2 (stereo partly drawn) [Example 34, Methyl [(1S,2S)-2-(2,3-dihydro-1H-inden-5-yl)-1-({2-[2-(2,2-dioxido-2-thia-1,7-diazabicyclo[4.3.1]dec-9-yl)ethyl]-3-fluorophenyl}carbamoyl)-2-(4-fluorophenyl)ethyl]carbamate]  23 nM
19. COC(=O)N[C@H](C(=O)N[C@H]1CCCC[C@@H]1CC[C@H]1CN[C@@H]2CCCS(=O)(=O)N1C2)[C@@H](c1ccc(Cl)cc1)C1CCOCC1 [Example 25, Methyl [(1S,2R)-2-(4-chlorophenyl)-1-{[(1S,2R)-2-{2-[(6R,9S)-2,2-dioxido-2-thia-1,7-diazabicyclo[4.3.1]dec-9-yl]ethyl}cyclohexyl]carbamoyl}-2-(tetrahydro-2H-pyran-4-yl)ethyl]carbamate]  41 nM
